Reference: patent US4916214A, “Cationic complexes of technetium-99m” (Amersham International plc., priority 1987, dated 1990)
Read-outs that look alike come from different tables or passages of the source. Blank lines part the entries; values can stand above or below the compound they belong to.

Experiments:
[1] = rat, in vivo
Experimental: (§1) In vivo biodistribution: 0.1 ml Tc^99m prep was injected i.v. into a laterial tail vein of 6 anaesthetised rats.
(§2) At 2 minutes and 60 minutes post-injection, 3 rats were sacrificed by decapitation, bled from the neck and dissected. The following organs were removed at dissection: kidney; bladder(+ urine), lung, liver, spleen, stomach, small intestine, large intestine, brain (weighed), heart (weighed), thyroid and samples of blood (weighed) and muscle (weighed), the residual carcass and the tail (injection site). Subsequently samples were counted in an automatic twin crystal gamma counter.
(§3) Percentage biodistribution of injected material was calculated (after correction for background) for all organs using the formula: [formula]
(§4) Since only samples of muscle and blood were taken, the percentage in these tissues was calculated assuming blood and muscle to represent 5.8 and 43% of total animal weight respectively using the formula: [formula]

[2] = Animal biodistribution of 99mTc complexes in guinea pigs; type: in vivo, guinea pig;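 also: Heart, liver and kidney plus urine values are percent of the injected material, background-corrected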
Experimental: as §3, §4
Since only samples of muscle and blood were taken, the percentage in these tissues was calculated assuming blood and muscle to represent 5.8 and 43% of total animal weight respectively using the formula: [formula] where CF= 0.058 for blood

[3] = Animal biodistribution of 99mTc complexes in rats (i.v. injection, organ counting); conditions: Table VII, nitrosyl complex [Tc(NO)Cl2 L2 ]^- of the ligand, 60 min p.i.
Experimental: as §1, §2, §3, §4

[4] = guinea pig, 2 min p.i. in vivo, mean
[5] = guinea pig, 60 min p.i. in vivo, mean
[6] = Table VIII, [TcL3 ]^+ complex of the ligand, guinea pigs, 2 min p.i.
[7] = Table VIII, [TcL3 ]^+ complex of the ligand, guinea pigs, 60 min p.i.

SMILES: COCC(COC)(CP(C)C)CP(C)C.COCC(COC)(CP(C)C)CP(C)C.O=[N][99Tc+][Cl].[Cl-] [Example 19]
Blood ([1]; 2 min): 2.05 % injected dose/organ | Heart ([1]; 2 min): 1.56 % injected dose/organ | Heart/Blood Counts/Gram ratio ([1]; 2 min): 10.9 | Heart/Liver Counts/Gram ratio ([1]; 2 min): 1.56 | Heart/Lung Counts/Gram ratio ([1]; 2 min): 1.8 | Heart/Muscle Counts/Gram ratio ([1]; 2 min): 4.57 | Kidney + Urine ([1]; 2 min): 8.94 % injected dose/organ | Liver ([1]; 2 min): 13.2 % injected dose/organ | Liver + GI ([1]; 2 min): 35.3 % injected dose/organ | Lung ([1]; 2 min): 1.33 % injected dose/organ | Muscle ([1]; 2 min): 36.2 % injected dose/organ | Blood ([1]; 60 min): 0.14 % injected dose/organ | Heart ([1]; 60 min): 1.47 % injected dose/organ | Heart/Blood Counts/Gram ratio ([1]; 60 min): 192 | Heart/Liver Counts/Gram ratio ([1]; 60 min): 17.2 | Heart/Lung Counts/Gram ratio ([1]; 60 min): 3.6 | Heart/Muscle Counts/Gram ratio ([1]; 60 min): 5.6 | Kidney + Urine ([1]; 60 min): 11.0 % injected dose/organ | Liver ([1]; 60 min): 1.03 % injected dose/organ | Liver + GI ([1]; 60 min): 45.5 % injected dose/organ | Lung ([1]; 60 min): 0.68 % injected dose/organ | Muscle ([1]; 60 min): 28.2 % injected dose/organ | Blood [2, 4]: 3.77 % injected dose/organ | Heart [2, 4]: 1.36 % injected dose/organ | Heart/Blood Counts/Gram ratio [2, 4]: 8.66 | Heart/Liver Counts/Gram ratio [2, 4]: 2.20 | Heart/Lung Counts/Gram ratio [2, 4]: 0.9 | Heart/Muscle Counts/Gram ratio [2, 4]: 4.65 | Kidney + Urine [2, 4]: 15.5 % injected dose/organ | Liver [2, 4]: 11.0 % injected dose/organ | Liver + GI [2, 4]: 35.0 % injected dose/organ | Lung [2, 4]: 1.57 % injected dose/organ | Muscle [2, 4]: 38.6 % injected dose/organ | Blood [2, 5]: 0.48 % injected dose/organ | Heart [2, 5]: 1.05 % injected dose/organ | Heart/Blood Counts/Gram ratio [2, 5]: 49.6 | Heart/Liver Counts/Gram ratio [2, 5]: 17.5 | Heart/Lung Counts/Gram ratio [2, 5]: 2.0 | Heart/Muscle Counts/Gram ratio [2, 5]: 4.77 | Kidney + Urine [2, 5]: 18.1 % injected dose/organ | Liver [2, 5]: 0.92 % injected dose/organ | Liver + GI [2, 5]: 45.9 % injected dose/organ | Lung [2, 5]: 0.52 % injected dose/organ | Muscle [2, 5]: 30.6 % injected dose/organ

Heart/Liver Counts/Gram ratio [3]: 1.52 | Heart [2, 6]: 0.53 % injected dose | Heart/Blood Counts/Gram ratio [2, 6]: 0.42 | Heart/Liver Counts/Gram ratio [2, 6]: 0.30 | Heart/Muscle Counts/Gram ratio [2, 6]: 6.11 | Liver [2, 6]: 38.0 % injected dose | Heart [2, 7]: 0.38 % injected dose | Heart/Blood Counts/Gram ratio [2, 7]: 3.27 | Heart/Liver Counts/Gram ratio [2, 7]: 0.13 | Heart/Muscle Counts/Gram ratio [2, 7]: 4.12 | Liver [2, 7]: 36.8 % injected dose
SMILES: CP(C)CCP(C)C [dmpe, di(dimethylphosphino) ethane, reference compound]
